Values after ≈ are worked out from the molar mass of the structure shown. Values joined by “and” are separate entries in the source; they are usually repeats but may differ in a detail not shown here. Identical values can stand only once. Like-named read-outs stand apart in the source and are kept apart here.
Key:
MCF-7 cells = assay: In vitro cytotoxicity, SRB assay, 72 h dose-response; assay type: cell-based; details: Homo sapiens, MCF7, 72 h
Source text: (§1) Nature Protocols, 1, 1112-1 116.

MDA-MB-231 cells = assay: as above; assay type: cell-based; details: Homo sapiens, MDA-MB-231, 72 h
Source text: as §1

U937 cells = assay: In vitro cytotoxicity, MTT assay, 72 h dose-response; assay type: cell-based, human; details: CD13+, CD4+
Procedure: (§6) Briefly, MTT solution was added to the cell cultures at a final concentration of 0.5 mg/mL, and incubated for 1 to 4 hours at 37° C. until formazan crystals are formed. Culture medium is carefully removed from the cell cultures and formazan crystals resuspended in 100 μl DMSO. […] Cell survival was expressed as percentage of control, untreated cell survival.

RPMI-8226 cells = assay: as above; assay type: cell-based, human; details: CD13−, CD20−, CD5−, CD4−
Procedure: as §6

Karpas-299 cells = assay: as above; assay type: cell-based, human; details: CD20−, CD5+, CD4+
Procedure: as §6

[1] = test system: Raji-clone #10 (high CD5 expression); assay: as above; assay type: cell-based; details: Homo sapiens
Procedure: as §6

[2] = test system: Raji-clone #18 (null CD5 expression); assay: as above; assay type: cell-based; details: Homo sapiens
Procedure: as §6

[3] = test system: NB4, U937, Raji and RPMI-8226 cells; assay: In vitro cytotoxicity, whole CD13 cell panel; details: for IC50: Homo sapiens
Source text: (§2) All tumor cell lines used in this study were obtained from the American Type Culture Collection (ATCC), unless otherwise indicated; BT-474 (ATCC HTB-20, Breast Ductal Carcinoma), SK-BR-3 (ATCC HTB-30, Breast Adenocarcinoma) and HCC-1954 (ATCC CRL-2338, Breast Ductal Carcinoma), all HER2+; MDA-MB-231 (ATCC HTB-26, Breast Adenocarcinoma) and MCF-7 (ATCC HTB-22 Breast Adenocarcinoma, pleural effusion), all HER2-; SK-OV-3 (ATCC HTB-77, Ovary Adenocarcinoma), HER2+; NB-4 (Acute Promyelocytic Leukemia, APL, CD13+, M. Lanotte et al. (1991) NB4, a maturation inducible cell line with t(15;17) marker isolated from a human acute promyelocytic leukemia (M3). Blood 77, 1080-1086), (CD13+) and U937 (ATCC CRL-1 593.2, Histiocytic Lymphoma, CD13+ and CD4+); Raji (ATCC CCL-86, Burkitt's Lymphoma) (CD13−, CD20+, CD5−, and CD4−); RPMI-8226 (ATCC CRM-CCL-155, Multiple Myeloma) (CD13−, CD20−, CD5− and CD4−); Karpas-299 (DSMZ ACC-31, Non-Hodgkin's Lymphoma) (CD20−, CD5+, and CD4+); MOLT-4 (ATCC CRL-1 582, Acute Lymphoblastic Leukemia, CD5+). In addition, the two Raji cell (ATCC CCL-86, Burkitt's Lymphoma) clones used in this study Raji-clone #10 (high CD5 expression) and Raji-clone18 (null CD5 expression), were provided by Dr. Juan M. Zapata (Instituto de Investigaciones Biomedicas “Alberto Sols”, CSIC-UAM, Madrid, Spain). Cells were maintained at 37° C., 5% CO 2 and 95% humidity in Dulbecco's Modified Eagle's Medium (DMEM) (for MCF and MDA-MB-231 cells), RPMI-1640 (for SK-BR-3, HCC-1954, NB-4, U937, Raji, RPMI-8226, Karpas-299, MOLT-4, Raji-clone #10 and Raji-clone #18 cells), RPMI-1640+1% ITS (for BT-474 cells) or McCOyS (for SK-OV-3 cells), all media supplemented with 10% Fetal Calf Serum (FCS) and 100 units/mL penicillin and streptomycin.
(§3) For suspension cells: A standard metabolic assay using MTT (3-(4,5-Dimethylthiazol-2-yl)-2,5-diphenyltetrazolium bromide) was adapted for quantitative measurement of cell growth and cytotoxicity, as described in T. Mosmann (1983) Rapid colorimetric assay for cellular growth and survival: Application to proliferation and cytotoxicity assays. J. Immunol. Meth., 65, 55-63. Briefly, MTT solution was added to the cell cultures at a final concentration of 0.5 mg/mL, and incubated for 1 to 4 hours at 37° C. until formazan crystals are formed. Culture medium is carefully removed from the cell cultures and formazan crystals resuspended in 100 μl DMSO. After mixing to assure solubilization, the quantity of formazan (presumably directly proportional to the number of viable cells) is measured by recording changes in absorbance at 570 nm using a plate reading spectrophotometer. Cell survival was expressed as percentage of control, untreated cell survival.
(§4) The IC50 value refers to the concentration of compound inducing a 50% of cell death as compared to the control cell survival.
The in vitro cytotoxic activity of ADC9 along with the parent cytotoxic Compounds 1 and 4, was evaluated against different human tumor cell lines expressing or not the CD13 receptor, including NB4 and U937 (CD13 positive cells) and Raji and RPMI-8226 (CD13 negative cells). Standard dose-response (DR) curves for 72 hours were performed.

[4] = test system: Raji, RPMI-8226 and Karpas-299 cells; assay: In vitro cytotoxicity, whole CD20 cell panel; details: Homo sapiens
Source text: as §2, §3, §4
The in vitro cytotoxic activity of ADC12 along with the parent cytotoxic Compounds 1, 4, and 40, was evaluated was assayed against different human cancer cell lines expressing or not the CD20 antigen, including Raji (CD20 positive cells); RPMI-8226 and Karpas-299 (CD20 negative cells). Standard dose-response (DR) curves for 72 hours were performed.

[5] = test system: Karpas-299, MOLT-4, Raji and RPMI-8226 cells; assay: In vitro cytotoxicity, whole CD5 cell panel; details: for IC50: Homo sapiens
Source text: as §2, §3, §4
(§5) The in vitro cytotoxic activity of ADC14 along with the parent cytotoxic Compounds 1, 4, and 40, was evaluated against different human cancer cell lines expressing or not the CD5 antigen, including Karpas-299 and MOLT-4 (both CD5+); Raji and RPMI-8226 (both CD5−). Standard dose-response (DR) curves for 72 hours were performed.

[6] = test system: Karpas-299, U937, Raji and RPMI-8226 cells; assay: In vitro cytotoxicity, whole CD4 cell panel; details: Homo sapiens
Source text: as §2, §3, §4
as §5, with “ADC16” for “ADC14”, “CD4” for “CD5”, “U937” for “MOLT-4”, “CD4+);” for “CD5+);”, “CD4−).” for “CD5−).”

[7] = Homo sapiens, RPMI-8226, 72 h, read-out: IC50
[8] = Homo sapiens, KARPAS-299, 72 h, read-out: IC50
[9] = read-out: IC50 values across the different cell lines tested (range)
[10] = read-out: mean IC50 value across the whole cell panel

Row | SMILES | IC50 (MCF-7 cells; HER2−, 72 h, read-out: IC50) | IC50 (MDA-MB-231 cells; HER2−, 72 h, read-out: IC50) | IC50 (RPMI-8226 cells; [7]) | IC50 (Karpas-299 cells; [8]) | IC50 ([1]; C#10 (high CD5)) | IC50 ([1]; clone #10, CD5 expressing) | IC50 ([2]; C#18 (null CD5)) | IC50 ([2]; clone #18, CD5 null) | IC50 [3, 9] | IC50 [3, 10] | IC50 [4, 9] | IC50 [4, 10] | IC50 [5, 9] | IC50 [5, 10] | IC50 [6, 9] | IC50 [6, 10] | IC50 (U937 cells) | IC50 (U937 cells; read-out: IC50) | IC50 (RPMI-8226 cells) | IC50 (RPMI-8226 cells; read-out: IC50) | further results
1 | COC1=CC[C@@H]([C@@H](C)/C=C(C)/C=C\C=C/C(=O)N[C@H](C(=O)N/C=C\C[C@H](C/C=C(\C)Cl)OC(=O)NCCCNC(=O)CCCCCN2C(=O)C=CC2=O)C(C)(C)C)OC1=O [Compound 1] | 0.0037 µg/mL and 4.32 nM | 0.0028 µg/mL and 3.27 nM | 0.0025 µg/mL and 2.92 nM | 0.0019 µg/mL and 2.22 nM | 0.0029 µg/mL and 3.39 nM | 3.4 nM | 0.038 µg/mL and 44.4 nM | 44 nM | 0.0008 µg/mL to 0.0063 µg/mL and 0.94 nM to 7.3 nM | 0.0028 µg/mL and 3.3 nM | 0.0016 µg/mL to 0.0028 µg/mL and 1.9 nM to 3.3 nM | 0.0021 µg/mL and 2.5 nM | 1.8 to 11 ng/mL (≈ 2.1 to 12.8 nM) | 0.0046 µg/mL and 5.3 nM | 0.0015 µg/mL to 0.0073 µg/mL and 1.7 nM to 8.6 nM | 0.0034 µg/mL and 3.9 nM |  |  |  |  | IC50 (U937 cells; Homo sapiens, U-937, 72 h, read-out: IC50): 0.00165 µg/mL and 1.93 nM
2 | COC1=CC[C@@H]([C@@H](C)/C=C(C)/C=C\C=C/C(=O)N[C@H](C(=O)N/C=C\C[C@H](C/C=C(\C)Cl)OC(=O)NCCCN)C(C)(C)C)OC1=O [Compound 4] | 0.000415 µg/mL and 0.626 nM | 0.00031 µg/mL and 0.468 nM | 0.000358 µg/mL and 0.539 nM | 0.00093 µg/mL and 1.4 nM | 0.0099 µg/mL and 14.9 nM | 15.7 nM | > 15.1 nM and > 0.01 µg/mL |  | 7.9e-05 µg/mL to 0.00265 µg/mL and 0.12 nM to 4 nM | 0.00084 µg/mL and 1.2 nM | 0.00057 µg/mL to 0.0014 µg/mL and 0.86 nM to 2.1 nM | 0.00097 µg/mL and 1.5 nM | 0.00063 µg/mL to 0.0027 µg/mL and 0.95 nM to 4.1 nM | 0.0013 µg/mL and 1.9 nM | 0.00061 µg/mL to 0.0027 µg/mL and 0.92 nM to 4.1 nM | 0.0012 µg/mL and 1.8 nM | 0.000278 µg/mL | 0.419 nM | 0.00057 µg/mL | 0.859 nM | IC50 (Karpas-299 cells; read-out: IC50): 1.38 nM; IC20 ([1]; C#10 (high CD5)): 0.00465 µg/mL and 7.01 nM; IC20 ([2]; C#18 (null CD5)): 0.00677 µg/mL and 10.2 nM; mean IC50 value across the whole cell panel ([3]; CD13+ and CD13− lines): 1.2 nM; reduction of cytotoxic activity as compared to Compound 40 ([5]; amine containing group): around 1 log
3 | COC1=CC[C@@H]([C@@H](C)/C=C(C)/C=C\C=C/C(=O)N[C@H](C(=O)N/C=C\C[C@H](C/C=C(\C)Cl)OC(N)=O)C(C)(C)C)OC1=O [Compound 40] |  |  |  |  | 0.495 ng/mL | 0.817 nM | 0.89 ng/mL | 1.47 nM | 0.031 to 0.17 ng/mL (≈ 0.0511 to 0.28 nM) | 8.6e-05 µg/mL and 0.14 nM | 8.6e-05 µg/mL to 0.00011 µg/mL and 0.14 nM to 0.19 nM | 9.6e-05 µg/mL and 0.16 nM | 7.5e-05 µg/mL to 0.00036 µg/mL and 0.12 nM to 0.59 nM | 0.00016 µg/mL and 0.26 nM | 0.13 nM to 0.47 nM and 7.9e-05 µg/mL to 0.00028 µg/mL | 0.00015 µg/mL and 0.25 nM | 7.9e-05 µg/mL | 0.131 nM | 8.65e-05 µg/mL and 0.00012 µg/mL | 0.143 nM and 0.198 nM | IC50 (MCF-7 cells): 0.000132 µg/mL and 0.218 nM; IC50 (MDA-MB-231 cells): 0.000173 µg/mL and 0.284 nM; IC50 (Karpas-299 cells): 0.00013 µg/mL; IC50 (Karpas-299 cells; read-out: IC50): 0.142 nM and 0.215 nM

Reference: patent publication US12410148B2, “Antibody drug conjugates” (Pharma Mar, S.A., priority 2013, dated 2025)
